One assay relates to transglutaminase. The assay is described as follows: Measurement of transglutaminase activity in lysate of treated keratinocytes (Transglutaminase Colorimetric Microassay Kit). The class given is cell-based, human. The following applies: for Transglutaminase activity: HEKn cells, 3 days, relative value, n = 3.
The subject of assay [1] is Normal human epidermal keratinocytes NHEK(F). The assay is described as follows: Verification of ceramide production enhancing effect (TLC of cell lipids). Format: cell-based. The settings on record: 3 days, 0.1 μM, relative value, 50 vol % ethanol = 1. As to the method: Normal human epidermal keratinocytes (trade name: NHEK(F), manufactured by Kurabo Industries, Ltd.) were cultured under the conditions of 37° C. and 5% CO2, in a culture medium (trade name: EpiLife-KG2, manufactured by Kurabo Industries, Ltd.) using a culture plate.
Thereafter, the culture medium was exchanged with EpiLife-KG2 without growth factors such as epidermal growth factor, and a dilution prepared from the extract from Justicia procumbens prepared in the Preparation Example 1-2, the concentration of which was adjusted to 1 w/v % in terms of solids content, […] Alternatively, the culture medium was exchanged with EpiLife-KG2 without growth factors such as epidermal growth factor, and a dilution prepared from the extract from Peristrophe japonica prepared in the Preparation Example 2-2, the concentration of which was adjusted to 1 w/v % in terms of solids content, was added to the culture fluid in an amount of 0.1%. […]
Further, 0.1 N NaOH and a 1% aqueous SDS solution were added to the cells from which lipids had been extracted, and the mixture was heated at 60° C. for 2 hours to thereby solubilize proteins. […] The amount of proteins was quantified by the BCA method. […]
A ceramide amount was measured using recovered cells in a manner similar to Test Example 2-1. […]

Another assay deals with IVL gene. Kind of assay: Evaluation of IVL gene expression (Real-time RT-PCR, HaCaT). The class given is cell-based, human. The settings on record: 24 hours, 0.01 μM, corrected by RPLPO, relative value, DMSO = 1. As to the method:
Human epidermal keratinocyte line HaCaT was cultured in a culture medium in which 10% fetal calf serum inactivated, and 1% penicillin-streptomycin (manufactured by Gibco Laboratories) were added to DMEM (manufactured by Gibco Laboratories), under conditions of 37° C. and 5% CO2.
In a 6-well plate, HaCaT cells were seeded in an amount of 5×10^4 pieces/well, and cultured. On the following day, exchange was carried out for a culture medium containing the exemplified compound (18) at a final concentration shown in Table 10, and culture was further carried out for 24 hours. In place of the exemplified compound (18), as a control, exchange was carried out for a culture medium containing at a final concentration of 0.1% v/v DMSO being a solvent, and culture was further carried out for 24 hours, and thus the resultant cultured product was used. After 24 hours from addition of the exemplified compound (18), the cells were washed twice using PBS(−), and total RNA was extracted using RNeasy (registered trademark) Mini Kit (manufactured by QIAGEN). A concentration of total RNA was measured, and a fixed amount of total RNA was used as a template, and a reverse transcription reaction was carried out using High capacity RNA-to-cDNA Kit (trade name, manufactured by Applied Biosystems, Inc.).
IVL gene expression was quantitatively determined from the resultant cDNA by Real-time RT-PCR. […]

Where [2] appears, read: evaluated conc. 1 μM, control DMSO = 1.
Where [3] appears, read: evaluated conc. 0.01 μM, control DMSO = 1.
[4] abbreviates: evaluated conc. 0.1 μM, control DMSO = 1.
Setting [5] is: fractions from Justicia procumbens extract, result in words.

Read-outs that look alike come from different tables or passages of the source.

We go through 13 compounds from patent publication US10064800B2, “Transglutaminase activator” (Kao Corporation, priority 2012, dated 2018).

Compound `COc1cc([C@@H]2c3cc4c(c(OC)c3C[C@H]3COC(=O)[C@@H]32)OCO4)cc(OC)c1OC` [(1), reference compound] came in with a Transglutaminase activity with transglutaminase (setting [2]) of 0.24 ± 0.21.

As for `COc1cc([C@@H]2c3cc4c(cc3C[C@H]3COC(=O)[C@@H]32)OCO4)cc(OC)c1OC` [(2), reference compound], in the assay on transglutaminase (setting [2]), the Transglutaminase activity is listed as 0.20 ± 0.18.

On to `COc1c2c(c(-c3ccc4c(c3)OCO4)c3cc4c(cc13)OCO4)C(=O)OC2` [(3), reference compound], for which the Transglutaminase activity is 0.75 ± 0.49 with transglutaminase (setting [3]), 0.97 ± 0.43 in the assay with transglutaminase (setting [4]) and 0.70 ± 0.24 with transglutaminase (setting [2]).

For `COc1cc2c(OC)c3c(c(-c4cc5c(cc4O)OCO5)c2cc1OC)C(=O)OC3` [(4), reference compound], the Transglutaminase activity with transglutaminase (setting [3]) is on record as 0.60 ± 0.28; in the assay with transglutaminase (setting [4]), 0.39 ± 0.10; with transglutaminase (setting [2]) it was 0.22 ± 0.08.

With `O=C1OCc2cc3ccccc3c(-c3ccccc3)c21` [Exemplified compound (11), 9-phenylnaphtho[2,3-c]furan-1(3H)-one], the Transglutaminase activity is reported as 1.10 ± 0.22 in the assay on transglutaminase (setting [3]), 1.29 ± 0.40 in the assay on transglutaminase (setting [4]) and 1.48 ± 0.22 in the assay with transglutaminase (setting [2]).

`COc1cc2cc3c(c(-c4ccc5c(c4)OCO5)c2cc1OC)C(=O)OC3` [Exemplified compound (12), 6,7-dimethoxy-9-(1,3-benzodioxol-5-yl)naphtho[2,3-c]furan-1(3H)-one]: the Transglutaminase activity worked out at 1.20 ± 0.16 in the assay on transglutaminase (setting [3]) and 2.80 ± 1.73 in the assay on transglutaminase (setting [4]). Moreover, in the assay on transglutaminase (setting [5]), the “Transglutaminase activity of isolated HPLC fraction” value is “confirmed to exist”. In assay [1], the “Ceramide amount (Average value in n = 2)” value is 1.30.

Turning to `COc1cc2c(O)c3c(c(-c4ccc5c(c4)OCO5)c2cc1OC)C(=O)OC3` [Exemplified compound (13), 4-hydroxy-6,7-dimethoxy-9-(1,3-benzodioxol-5-yl)naphtho[2,3-c]furan-1(3H)-one], the figures for the Transglutaminase activity in the assay on transglutaminase (setting [3]) and in the assay with transglutaminase (setting [4]) were 1.95 ± 0.53 and 1.75 ± 0.61, respectively.

For `COc1cc2c(OC)c3c(c(-c4ccc5c(c4)OCO5)c2cc1OC)C(=O)OC3` [Exemplified compound (14), 4,6,7-trimethoxy-9-(1,3-benzodioxol-5-yl)naphtho[2,3-c]furan-1(3H)-one], the values for the Transglutaminase activity in the assay with transglutaminase (setting [3]), in the assay on transglutaminase (setting [4]) and with transglutaminase (setting [2]) were 1.22 ± 0.51, 2.42 ± 0.55 and 2.19 ± 0.98, respectively. Also, in the assay with transglutaminase (setting [5]), the “Transglutaminase activity of isolated HPLC fraction” value is “confirmed to exist”.

As for `CCOc1c2c(c(-c3ccc4c(c3)OCO4)c3cc(OC)c(OC)cc13)C(=O)OC2` [Exemplified compound (15), 4-ethoxy-6,7-dimethoxy-9-(1,3-benzodioxol-5-yl)naphtho[2,3-c]furan-1(3H)-one], the Transglutaminase activity in the assay on transglutaminase (setting [3]) was determined as 1.25 ± 0.22; in the assay with transglutaminase (setting [4]) it was 1.33 ± 0.39; in the assay with transglutaminase (setting [2]) it was 1.66 ± 0.33.

Regarding `COc1cc2c(OC(C)=O)c3c(c(-c4ccc5c(c4)OCO5)c2cc1OC)C(=O)OC3` [Exemplified compound (16), 4-acetoxy-6,7-dimethoxy-9-(1,3-benzodioxol-5-yl)naphtho[2,3-c]furan-1(3H)-one], the Transglutaminase activity in the assay with transglutaminase (setting [4]) is given as 1.46 ± 0.54; in the assay with transglutaminase (setting [2]) it was 2.10 ± 0.86.

Regarding `O=C1OCc2cc3ccc4c(c3cc21)OCO4` [Exemplified compound (19), furo[3′,4′,6,7]naphtho[1,2-d]-1,3-dioxole-9(7H)-one], the Transglutaminase activity with transglutaminase (setting [4]) is reported as 1.98 ± 0.83; in the assay with transglutaminase (setting [2]), 2.37 ± 0.26.

As for `[Ca+2].[Cl-].[Cl-]` [Positive control (Ca^2+), CaCl2, reference compound], the Transglutaminase activity with transglutaminase (CaCl2 1.5 mM positive control, control = 1) came to 1.51 ± 0.20.

In the case of “Tuberculatin-5″-acetate [Exemplified compound (18)]”, in the assay on transglutaminase, the “Transglutaminase activity of isolated HPLC fraction” value is recorded as “confirmed to exist”. Besides, the values for the Transglutaminase activity in the assay on transglutaminase (setting [4]) and in the assay with transglutaminase (setting [2]) were 2.78 ± 0.19 and 5.44 ± 0.19, respectively. Also, the “IVL gene amount (Average value in n = 2)” value in the assay with IVL gene turned out to be 1.32.
